“Also recorded” adds a separate entry of the source.
Experiments:
[1] = tested on: Male Sprague-Dawley rats; assay: Spared Nerve Injury (SNI) model of neuropathic pain; assay type: in vivo, rat; conditions: Von Frey filaments, 90 min post-treatment, Compound 11 3 and 10 mg/kg i.p., Compound 107 20 mg/kg i.p.
Text: The Spared Nerve Injury (SNI) model (Decosterd et al., Pain 2000; 87: 149) was used to induce chronic neuropathic pain. Male Sprague-Dawley rats were anesthetized with isoflurane, and two of the three terminal branches of the sciatic nerve (tibial and common peroneal nerves) were transected, leaving the remaining sural nerve intact. Animals develop thermal and mechanical hyperalgesia and allodynia, as well as spontaneous pain or dysesthesia that last month after the nerve injury.
Mechanical allodynia testing: Pre- and post-injury baselines as well as post-treatment values (vehicle or compound-treated animals) for mechanical allodynia were evaluated using Von Frey filaments (Stoelting, Wood Dale, Ill., USA) with varying stiffness. […] The mean and standard error of the mean (SEM) were determined for each paw in each treatment group (ipsilateral/injured paw and contralateral/non-injured paw). […] Effects of compounds were evaluated two weeks after the injury. Compound or vehicle was administered (i.p. or s.c.) and effects on mechanical allodynia were measured at different time points after dosing (e.g., 30, 60 and 90 min.).
Data analysis: Statistical analyses were conducted using Prism™ 4.01 (GraphPad, San Diego, Calif., USA). Mechanical hypersensitivity of the injured paw was determined by comparing contralateral to ipsilateral paw values within the vehicle group at each time point. […]

[2] = tested on: NGF-induced Erk 1/2 phosphorylation in PC12 cells; assay: Erk phosphorylation in NGF-stimulated PC12 cells (Western blot); assay type: cell-based, rat; conditions: 5 ng/mL NGF
Protocol: This assay is useful for establishing that the compounds of the invention are functional NGF antagonists, not receptor agonists (an agonist could conceivably block NGF binding but actually activate the receptor). Erk 1/2 is a kinase activated down stream of TrkA and is a well studied member of the NGF-induced signal transduction cascade.
PC12 cells expressing TrkA and p75 were acutely exposed to 5 ng/mL NGF (15 min; 37° C.; 5% CO2) that was pre-incubated (30 min; room temperature) with or without the compounds. Cells were lysed in Laemmli sample buffer (for SDS-PAGE) or a lysis buffer containing Triton X-100 (for ELISA). Following SDS-PAGE, proteins were electroblotted onto nitrocellulose and immunoprobed for phosphorylated Erk 1 and 2. Blocking and primary antibody incubations of immunoblots were performed in Tris-buffered saline-Tween (10 mM Tris, pH 8.0, 150 mM NaCl, and 0.2% Tween 20) supplemented with 5% (w/v) bovine serum albumin (BSA); secondary antibody incubations were performed in 5% (w/v) dried skim milk powder. Immunoreactive bands were detected by chemiluminescence.

[3] = tested on: PC12 cells; assay: NGF-induced neurite outgrowth in PC12 cells; assay type: cell-based, rat; conditions: 4 days of exposure to NGF
Protocol: This assay was run as a further functional marker of NGF antagonism and takes advantage of the differentiation of PC12 cells (neurite outgrowth) induced by NGF. Cultures of PC12 cells were grown on Terasaki plates pre-coated with poly-D-lysine. Cells were exposed to NGF (1-50 (preferably 5) ng/ml) to induce neurite outgrowth as described elsewhere [L A Greene & A S Tischler, Establishment of a noradrenergic clonal line of rat adrenal pheochromocytoma cells which respond to nerve growth factor, Proc Natl Acad Sci USA. 1976 July; 73(7): 2424-2428]. In addition to NGF, cells were exposed to varying concentration of the compounds or vehicle. Following 4 days of exposure to NGF in the presence or absence of compound, neurite outgrowth was quantified. A neurite was scored if its caliber from origin to terminal was approximately the same and the length was equal to or greater than 1.5 the cell body diameter. The number of neurite bearing cells per total number of viable cells was calculated for each condition; the number of cells with neurites in the presence of NGF (without compound exposure) was considered to represent maximal (100%) outgrowth, to which the inhibitory effect of compounds of the invention on NGF-induced outgrowth was compared.

[4] = tested on: Male Sprague-Dawley rats; assay: Formalin Model - model of acute tonic pain; assay type: in vivo, rat; conditions: 6.5, 12.5 and 25 mg/kg i.p., Phase II
Protocol: Male Sprague-Dawley rats were given a subcutaneous injection of 50 μl of 2.5% formalin into the plantar surface of one hindpaw using a 27 gauge syringe needle, and nociceptive responses were measured for the next 60 min. Compound or vehicle was administered (i.p. or s.c.) 15-45 minutes prior to the formalin injection. A nociceptive score was determined for each 5 min block by measuring the amount of time spent in each of four behavioral categories: 0, the injected hindpaw is indistinguishable from that of the contralateral paw; 1, the injected paw has little or no weight placed on it; 2, the injected paw is elevated and is not in contact with any surface; 3, the injected paw is licked, bitten, or shaken. A weighted nociceptive score, ranging from 0 to 3 was calculated by multiplying the time spent in each category by the category weight, summing these products, and dividing by the total time for each 5 min block of time (Coderre et al., Pain 1993; 54: 43). On the basis of the resulting response patterns, 2 phases of nociceptive behaviour were identified and scored: first phase (P1; 0-5 min) and second phase (P2; 11-40 min).
Statistical analysis was performed using Prism™ 4.01 software package (GraphPad, San Diego, Calif., USA). […]

## CC(=O)Nc1cc2c3c(cc(NC(C)=O)cc3c1)C(=O)N(CCCC(=O)O)C2=O [Compound 11, 4-(5,8-Bis-acetylamino-1,3-dioxo-1H,3H-benzo[de]isoquinolin-2-yl)-butyric acid]
[1]
  Effect on mechanical allodynia in the SNI model: significant dose-dependent reversal of the mechanical allodynia; also recorded: significant antinociceptive effects
[2]
  Inhibition of NGF-induced Erk 1/2 phosphorylation: inhibits NGF-induced Erk 1/2 phosphorylation in PC12 cells
[3]
  Inhibition of NGF-induced neurite outgrowth: effectively inhibit neurite outgrowth induced by NGF
[4]
  Antinociceptive effect in the Formalin Test: significant dose-dependent antinociceptive effect; also recorded: significant antinociceptive effects

From patent US7579468B2, “Methods of modulating neurotrophin-mediated activity” (PainCeptor Pharma Corporation, priority 2005, dated 2009)
